# Experimental data as given in publication PMC6811774, “Potent, selective, and subunit‐dependent activation of TRPC5 channels by a xanthine derivative” (British Journal of Pharmacology, 2019).
# Assays:
# TRPC4:C1 channels = TRPC4:C1 channels (Homo sapiens, UniProt P48995+Q9UBN4); experiment: Excised outside-out patch-clamp, HEK 293 cells transiently co-expressing hTRPC4 and hTRPC1; assay type: cell-based; parameters: expressed in transfected cells; host or cells: HEK 293 (transient co-expression); conditions: 30 nM EA; at 3 to 100 nM AM237
# Description: For electrophysiology experiments, cells were plated at a low density of 20–30% onto round or square glass coverslips (13 mm diameter or 5 × 5 mm), and TRPC expression in HEK T‐REx was induced with 1 μg·ml^−1 tetracycline 24 hr before experimentation. Experiments were carried out at room temperature. Extracellular solution consisted of SBS. Patch‐clamp recordings were performed in whole‐cell mode (Figure S7) and in excised outside‐out patch mode under voltage clamp at room temperature using 2–4 MΩ patch pipettes fabricated from borosilicate glass capillaries with an outside diameter of 1 mm and an inside diameter of 0.58 mm (Harvard Apparatus). The voltage protocol comprised voltage ramps applied from −100 to +100 mV every 10 s from a holding potential of 0 mV. The patch‐clamp currents were recorded using Axopatch 200B or HEKA EPC‐800 amplifiers, digitized by a Digidata 1440 or PCI6229 (National Instruments Japan, Tokyo, Japan) and recorded to a computer using pCLAMP10 (Molecular Devices) or WinWCPV4.5 (developed by Dr John Dempster, University of Strathclyde, UK). The data were filtered at 1 kHz and analysed offline using Clampfit 10.2 software or WinWCPV4.5 and Origin 9.1 software (OriginLab, Northampton, MA). […]
# TRPC5–C1 channels = TRPC5–C1 channels (Homo sapiens, UniProt P48995+Q9UL62); experiment: [Ca2+]i measurement in (Tet+) HEK T-REx cells expressing hTRPC5-C1 concatemer; assay type: cell-based
# Description: HEK T‐REx™ cell line was transfected with TRPC5‐SYFP2 or TRPC4‐SYFP2 using FuGENE® HD transfection reagent. After 48 hr, cells were put under antibiotic selection using 400 μg·ml^−1 zeocin and 10 μg·ml^−1 blasticidin S (Invivogen, San Diego, California, USA). Medium changes were carried out regularly to remove dead cells. HEK T‐REx cells expressing tetracycline‐inducible human TRPC5, TRPC4–C1, and TRPC5–C1 were created as described previously (Akbulut et al., 2015; Ludlow et al., 2017; Rubaiy, Ludlow, Henrot, et al., 2017). TRPC5–C1 and TRPC4–C1 concatemers allow expression of functional channels with defined 2:2 stoichiometry that display ion permeability and current–voltage relationships distinct from those of homomeric TRPC4:C4 or TRPC5:C5 channels and consistent with those obtained upon co‐expression of TRPC1 with TRPC4 or TRPC5 (Ludlow et al., 2017; Rubaiy, Ludlow, Bon, & Beech, 2017; Rubaiy, Ludlow, Henrot, et al., 2017). Cells were cultured in DMEM‐F12 GlutaMAX (Invitrogen, Paisley, UK) containing 10% FBS (Sigma‐Aldrich, Gillingham, UK), with the addition of blasticidin (10 μg·ml^−1) and zeocin (400 μg·ml^−1) to maintain the stable incorporation of the tetracycline repressor and the channel of interest, respectively. Expression of proteins was induced by the addition of tetracycline (1 μg·ml^−1, 24 hr). Cells were maintained in a humidified incubator with 5% CO2 at 37°C. HEK 293 cells stably expressing tetracycline‐regulated human http://www.guidetopharmacology.org/GRAC/ObjectDisplayForward?objectId=494 were prepared similarly and have also been described previously (McHugh, Flemming, Xu, Perraud, & Beech, 2003). For experiments using transient co‐expression of TRPC1 and TRPC5, HEK cells at 40–60% confluency were transfected with pIRES2‐AcGFP1 and pIRES2‐DsRed‐Express2 plasmids containing human TRPC1 and TRPC5, respectively, using Lipofectamine 3000 (ThermoFisher Scientific, Yokohama, Japan). All experiments using transient expression were performed within 48 hr after transfection. […]
# WT HEK 293 cells = experiment: Whole-cell patch-clamp in WT HEK 293 cells; assay type: cell-based, human; conditions: AM237 1–100 nM; EA 30 nM
# Description: For electrophysiology experiments, cells were plated at a low density of 20–30% onto round or square glass coverslips (13 mm diameter or 5 × 5 mm), and TRPC expression in HEK T‐REx was induced with 1 μg·ml^−1 tetracycline 24 hr before experimentation. Experiments were carried out at room temperature. Extracellular solution consisted of SBS. Patch‐clamp recordings were performed in whole‐cell mode (Figure S7) and in excised outside‐out patch mode under voltage clamp at room temperature using 2–4 MΩ patch pipettes fabricated from borosilicate glass capillaries with an outside diameter of 1 mm and an inside diameter of 0.58 mm (Harvard Apparatus). The voltage protocol comprised voltage ramps applied from −100 to +100 mV every 10 s from a holding potential of 0 mV. […] All solutions were filtered using a 0.2 μm filter (Sartorius, UK).
# Sequence of TRPC5–C1 channels (Q9UL62 whole entry): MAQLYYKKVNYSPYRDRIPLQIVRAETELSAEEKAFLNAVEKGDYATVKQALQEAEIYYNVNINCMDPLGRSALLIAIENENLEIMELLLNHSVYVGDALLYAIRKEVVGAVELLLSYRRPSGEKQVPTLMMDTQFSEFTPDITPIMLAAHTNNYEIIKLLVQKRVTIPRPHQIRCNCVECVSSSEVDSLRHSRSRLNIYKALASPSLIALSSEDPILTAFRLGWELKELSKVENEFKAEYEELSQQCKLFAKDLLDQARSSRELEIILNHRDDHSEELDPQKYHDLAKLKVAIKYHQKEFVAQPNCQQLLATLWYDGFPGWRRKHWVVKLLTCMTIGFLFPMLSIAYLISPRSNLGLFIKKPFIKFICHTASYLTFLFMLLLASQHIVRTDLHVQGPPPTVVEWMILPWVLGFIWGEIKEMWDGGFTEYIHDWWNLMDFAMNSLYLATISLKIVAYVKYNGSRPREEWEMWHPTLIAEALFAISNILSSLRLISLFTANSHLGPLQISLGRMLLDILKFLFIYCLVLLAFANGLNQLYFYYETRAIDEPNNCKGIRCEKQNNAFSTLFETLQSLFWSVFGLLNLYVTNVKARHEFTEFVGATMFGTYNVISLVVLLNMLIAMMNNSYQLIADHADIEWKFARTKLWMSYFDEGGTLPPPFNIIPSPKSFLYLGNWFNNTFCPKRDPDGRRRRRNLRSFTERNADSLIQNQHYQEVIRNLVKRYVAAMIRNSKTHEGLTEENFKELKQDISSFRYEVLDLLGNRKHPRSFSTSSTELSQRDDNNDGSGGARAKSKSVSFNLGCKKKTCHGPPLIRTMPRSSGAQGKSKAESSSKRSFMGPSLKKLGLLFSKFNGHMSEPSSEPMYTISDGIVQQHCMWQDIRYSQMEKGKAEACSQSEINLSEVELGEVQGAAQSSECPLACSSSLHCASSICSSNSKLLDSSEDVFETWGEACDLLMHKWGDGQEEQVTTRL
# Sequence of TRPC5–C1 channels (P48995 whole entry): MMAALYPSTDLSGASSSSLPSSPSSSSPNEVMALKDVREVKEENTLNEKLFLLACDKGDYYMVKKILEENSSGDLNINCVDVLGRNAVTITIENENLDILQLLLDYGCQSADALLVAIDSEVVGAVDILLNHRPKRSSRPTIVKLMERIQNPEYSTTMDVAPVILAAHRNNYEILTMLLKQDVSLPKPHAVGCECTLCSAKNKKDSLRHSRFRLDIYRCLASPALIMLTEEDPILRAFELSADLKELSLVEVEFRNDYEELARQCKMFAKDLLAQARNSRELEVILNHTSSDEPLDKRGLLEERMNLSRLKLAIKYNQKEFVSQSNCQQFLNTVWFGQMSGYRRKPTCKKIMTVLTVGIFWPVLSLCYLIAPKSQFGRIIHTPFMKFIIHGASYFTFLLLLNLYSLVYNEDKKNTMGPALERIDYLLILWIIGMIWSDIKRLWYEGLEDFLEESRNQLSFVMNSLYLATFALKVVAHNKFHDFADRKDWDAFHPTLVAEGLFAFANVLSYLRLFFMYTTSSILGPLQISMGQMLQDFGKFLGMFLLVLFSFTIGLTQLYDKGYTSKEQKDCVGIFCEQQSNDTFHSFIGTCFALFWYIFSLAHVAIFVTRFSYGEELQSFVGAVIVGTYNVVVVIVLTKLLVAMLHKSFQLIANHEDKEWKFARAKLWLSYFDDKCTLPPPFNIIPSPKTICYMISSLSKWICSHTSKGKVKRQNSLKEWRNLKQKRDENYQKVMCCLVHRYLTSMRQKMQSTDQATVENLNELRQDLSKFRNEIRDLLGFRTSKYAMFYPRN
# Sequence of TRPC4:C1 channels (Q9UBN4 whole entry): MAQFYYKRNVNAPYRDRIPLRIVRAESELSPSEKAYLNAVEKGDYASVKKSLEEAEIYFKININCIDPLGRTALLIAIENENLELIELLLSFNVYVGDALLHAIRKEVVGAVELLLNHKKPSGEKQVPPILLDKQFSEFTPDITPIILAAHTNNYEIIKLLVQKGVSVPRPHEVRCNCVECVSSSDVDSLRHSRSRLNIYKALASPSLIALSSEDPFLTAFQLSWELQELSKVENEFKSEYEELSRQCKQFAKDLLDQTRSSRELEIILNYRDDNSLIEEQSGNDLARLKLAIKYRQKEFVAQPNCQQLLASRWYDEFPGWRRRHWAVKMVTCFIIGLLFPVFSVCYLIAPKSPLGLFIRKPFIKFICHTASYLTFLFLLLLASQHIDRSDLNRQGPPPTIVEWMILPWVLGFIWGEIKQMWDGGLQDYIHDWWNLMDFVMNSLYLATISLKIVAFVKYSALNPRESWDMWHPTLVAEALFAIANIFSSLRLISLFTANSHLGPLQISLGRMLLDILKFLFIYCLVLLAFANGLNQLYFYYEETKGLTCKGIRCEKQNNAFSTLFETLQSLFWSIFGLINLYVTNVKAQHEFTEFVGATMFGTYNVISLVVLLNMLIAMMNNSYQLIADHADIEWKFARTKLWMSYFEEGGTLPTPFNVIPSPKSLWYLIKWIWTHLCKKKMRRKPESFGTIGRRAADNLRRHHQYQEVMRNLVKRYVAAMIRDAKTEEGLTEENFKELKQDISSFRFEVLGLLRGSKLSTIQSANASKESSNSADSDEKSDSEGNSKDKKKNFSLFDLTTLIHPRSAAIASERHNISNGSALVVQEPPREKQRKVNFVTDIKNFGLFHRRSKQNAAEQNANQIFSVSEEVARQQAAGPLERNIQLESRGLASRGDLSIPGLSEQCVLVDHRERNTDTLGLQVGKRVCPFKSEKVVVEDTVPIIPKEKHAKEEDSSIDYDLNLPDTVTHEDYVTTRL
# Sequence of TRPC4:C1 channels (P48995 whole entry): as the sequence (P48995 whole entry) above
compound,measurement,setting,value
Cn1c(=O)n(CCCO)c(=O)c2c1nc(Oc1ccc(Cl)c(OC(F)(F)F)c1)n2Cc1ccc(Cl)cc1 [AM237],Inhibition of currents induced by EA,TRPC4:C1 channels,full inhibition
same,"Hill slope, inhibition of EA response",TRPC5–C1 channels,-1.2
same,Effect of pre-incubation on basal [Ca2+]i,TRPC5–C1 channels; 0.1–100 nM AM237,did not raise
same,Activation upon acute administration ([Ca2+]i),TRPC5–C1 channels; 3-300 nM AM237,lack of activation
same,Effect on whole-cell currents at +100 and -100 mV,WT HEK 293 cells,no significant effect
